These compounds were tested against T1, human PAH with the R408W mutation (Homo sapiens, UniProt P00439, R408W) (assay: Cell Based Phenylalanine Flux Assay). Conditions: A375 cells expressing human R408W PAH; 24 hrs compound incubation; 13C-Tyrosine by LC-MS; average where tested multiple times; read-out: AC50.
T1 construct: expressed in transfected cells
T1 sequence (P00439 1-452 R408W): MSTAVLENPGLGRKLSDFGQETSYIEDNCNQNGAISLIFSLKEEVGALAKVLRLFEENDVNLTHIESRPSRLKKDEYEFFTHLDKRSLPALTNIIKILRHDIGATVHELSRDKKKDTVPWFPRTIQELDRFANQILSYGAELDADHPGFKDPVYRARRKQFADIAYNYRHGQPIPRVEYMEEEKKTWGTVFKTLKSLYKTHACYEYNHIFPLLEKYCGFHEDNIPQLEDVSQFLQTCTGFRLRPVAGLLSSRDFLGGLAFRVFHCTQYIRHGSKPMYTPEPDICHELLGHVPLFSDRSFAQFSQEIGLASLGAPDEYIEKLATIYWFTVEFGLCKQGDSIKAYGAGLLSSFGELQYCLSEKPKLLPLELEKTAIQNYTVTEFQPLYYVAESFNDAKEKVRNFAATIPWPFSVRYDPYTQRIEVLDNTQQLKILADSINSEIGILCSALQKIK
With `CC(C)(O)c1nc(C(F)F)c(C(=O)N2CCc3[nH]cnc3[C@@H]2c2nc3ccccc3s2)o1` [Example 1810, (R)-(4-(benzo[d]thiazol-2-yl)-6,7-dihydro-1H-imidazo[4,5-c]pyridin-5(4H)-yl)(4-(difluoromethyl)-2-(2-hydroxypropan-2-yl)oxazol-5-yl)methanone] the AC50 was 1000 to 5000 nM. `O=C(c1ccccc1)N1CCc2[nH]cnc2[C@H]1c1nc2ccccc2s1` [Example 1065] gave an AC50 of less than 500 nM. Compound `CC(C)(C)c1ncc(C(=O)N2CCc3[nH]cnc3[C@H]2c2nc3c(F)cccc3s2)o1` [Example 1430] has an AC50 of less than 500 nM. For `O=C(c1cnn(CC(F)(F)F)c1Cl)N1CCc2[nH]cnc2[C@@H]1c1nc2c(F)cccc2s1` [Example 1968, (R)-(5-chloro-1-(2,2,2-trifluoroethyl)-1H-pyrazol-4-yl)(4-(4-fluorobenzo[d]thiazol-2-yl)-6,7-dihydro-1H-imidazo[4,5-c]pyridin-5(4H)-yl)methanone], the AC50 was 1000 to 5000 nM. `O=C(c1oc(CCC2CC2)nc1C(F)(F)F)N1CCc2[nH]cnc2[C@H]1c1nc2ccccc2s1` [Example 1579] gave an AC50 of less than 500 nM. `COCc1ccc2c(C(=O)N3CCc4[nH]cnc4[C@@H]3c3nc4ccccc4s3)c(C#N)nn2c1` [Example 1865, (R)-3-(4-(benzo[d]thiazol-2-yl)-4,5,6,7-tetrahydro-1H-imidazo[4,5-c]pyridine-5-carbonyl)-6-(methoxymethyl)pyrazolo[1,5-a]pyridine-2-carbonitrile] gave an AC50 greater than 5000 nM. Compound `O=C(c1nc2ccccc2s1)N1CCc2[nH]cnc2[C@H]1c1nc2ccccc2s1` [Example 1001, (S)-benzo[d]thiazol-2-yl(4-(benzo[d]thiazol-2-yl)-6,7-dihydro-1H-imidazo[4,5-c]pyridin-5(4H)-yl)methanone] has an AC50 of 500 to 1000 nM. `Cc1ccc2nc([C@@H]3c4nc[nH]c4CCN3C(=O)c3cncs3)sc2c1` [Example 1303, (S)-(4-(6-methylbenzo[d]thiazol-2-yl)-6,7-dihydro-1H-imidazo[4,5-c]pyridin-5(4H)-yl)(thiazol-5-yl)methanone] gave an AC50 of 500 to 1000 nM. For `O=C(c1cnn2ccc(Cl)cc12)N1CCc2[nH]cnc2[C@H]1c1nc2cccc(F)c2s1` [Example 1301], the AC50 was less than 500 nM. `O=C(c1nnc(-c2cnn(CC(F)F)c2)o1)N1CCc2[nH]cnc2[C@@H]1c1nc2c(F)cccc2s1` [Example 1881, (R)-(5-(1-(2,2-difluoroethyl)-1H-pyrazol-4-yl)-1,3,4-oxadiazol-2-yl)(4-(4-fluorobenzo[d]thiazol-2-yl)-6,7-dihydro-1H-imidazo[4,5-c]pyridin-5(4H)-yl)methanone] showed an AC50 of 1000 to 5000 nM. `O=C(c1nnc(-c2cc(C(F)(F)F)ccn2)o1)N1CCc2[nH]cnc2[C@H]1c1nc2c(F)cccc2s1` [Example 1906, (S)-(4-(4-fluorobenzo[d]thiazol-2-yl)-6,7-dihydro-1H-imidazo[4,5-c]pyridin-5(4H)-yl)(5-(4-(trifluoromethyl)pyridin-2-yl)-1,3,4-oxadiazol-2-yl)methanone] showed an AC50 of less than 500 nM. Work on `C[C@H]1CN(C(=O)c2nnc(-c3ccc(F)cn3)o2)[C@H](c2nc3ccccc3s2)c2nc[nH]c21` [Example 1756, ((4S,7S)-4-(benzo[d]thiazol-2-yl)-7-methyl-6,7-dihydro-1H-imidazo[4,5-c]pyridin-5(4H)-yl)(5-(5-fluoropyridin-2-yl)-1,3,4-oxadiazol-2-yl)methanone] yielded an AC50 of 1000 to 5000 nM. `O=C(c1cnn2cc(F)ccc12)N1CCc2[nH]cnc2[C@H]1c1nc2ccccc2[nH]1` [Example 924, (S)-(4-(1H-benzo[d]imidazol-2-yl)-6,7-dihydro-1H-imidazo[4,5-c]pyridin-5(4H)-yl)(6-fluoropyrazolo[1,5-a]pyridin-3-yl)methanone] gave an AC50 of 500 to 1000 nM. Compound `CC(C)(F)c1ncc(C(=O)N2CCc3[nH]cnc3[C@H]2c2nc3c(F)cccc3s2)o1` [Example 1487, (S)-(4-(4-fluorobenzo[d]thiazol-2-yl)-6,7-dihydro-1H-imidazo[4,5-c]pyridin-5(4H)-yl)(2-(2-fluoropropan-2-yl)oxazol-5-yl)methanone] has an AC50 of less than 500 nM. Work on `O=C(c1oc(-c2ccc(F)cn2)nc1C(F)F)N1CCc2[nH]cnc2[C@@H]1c1nc2ccccc2s1` [Example 1745, (R)-(4-(benzo[d]thiazol-2-yl)-6,7-dihydro-1H-imidazo[4,5-c]pyridin-5(4H)-yl)(4-(difluoromethyl)-2-(5-fluoropyridin-2-yl)oxazol-5-yl)methanone] yielded an AC50 of 500 to 1000 nM. Work on `Cc1nc(C(C)(C)O)oc1C(=O)N1CCc2[nH]cnc2[C@H]1c1nc2c(C(F)(F)F)cccc2s1` [Example 2115, (S)-(2-(2-hydroxypropan-2-yl)-4-methyloxazol-5-yl)(4-(4-(trifluoromethyl)benzo[d]thiazol-2-yl)-6,7-dihydro-1H-imidazo[4,5-c]pyridin-5(4H)-yl)methanone] yielded an AC50 of 500 to 1000 nM. `Cc1ccc2c(C(=O)N3CCc4[nH]cnc4[C@@H]3c3nc4c(C)cccc4s3)cnn2c1` [Example 1296, (R)-(4-(4-methylbenzo[d]thiazol-2-yl)-6,7-dihydro-1H-imidazo[4,5-c]pyridin-5(4H)-yl)(6-methylpyrazolo[1,5-a]pyridin-3-yl)methanone] gave an AC50 of 1000 to 5000 nM. `O=C(c1nccs1)N1CCc2[nH]cnc2[C@H]1c1nc2c(Cl)cccc2s1` [Example 1201, (S)-(4-(4-chlorobenzo[d]thiazol-2-yl)-6,7-dihydro-1H-imidazo[4,5-c]pyridin-5(4H)-yl)(thiazol-2-yl)methanone] showed an AC50 of 1000 to 5000 nM. `CC(O)c1nc(Br)c(C(=O)N2CCc3[nH]cnc3[C@@H]2c2nc3c(F)cccc3s2)o1` (single isomer, unassigned) [Example 2059] gave an AC50 of 1000 to 5000 nM. For `O=C(c1oc(N2CCC(F)CC2)nc1C(F)F)N1CCc2[nH]cnc2[C@@H]1c1nc2ccccc2s1` [Example 1708, (R)-(4-(benzo[d]thiazol-2-yl)-6,7-dihydro-1H-imidazo[4,5-c]pyridin-5(4H)-yl)(4-(difluoromethyl)-2-(4-fluoropiperidin-1-yl)oxazol-5-yl)methanone], the AC50 was less than 500 nM. `O=C(c1cnc(-c2ccc(F)cc2)o1)N1CCc2[nH]cnc2[C@H]1c1nc2ccccc2s1` [Example 2117] showed an AC50 of less than 500 nM. Work on `O=C(c1cnn2ccc(Br)cc12)N1CCc2[nH]cnc2[C@@H]1c1nc2ccc(Br)cc2[nH]1` [Example 998, (R)-(4-(6-bromo-1H-benzo[d]imidazol-2-yl)-6,7-dihydro-1H-imidazo[4,5-c]pyridin-5(4H)-yl)(5-bromopyrazolo[1,5-a]pyridin-3-yl)methanone] yielded an AC50 greater than 5000 nM. Compound `CC(C)(O)c1nc(Br)c(C(=O)N2CCc3[nH]cnc3[C@@H]2c2nc3c(F)cccc3s2)o1` [Example 1898, (R)-(4-bromo-2-(2-hydroxypropan-2-yl)oxazol-5-yl)(4-(4-fluorobenzo[d]thiazol-2-yl)-6,7-dihydro-1H-imidazo[4,5-c]pyridin-5(4H)-yl)methanone] has an AC50 of 1000 to 5000 nM. Compound `CN(C)Cc1ccc2c(C(=O)N3CCc4[nH]cnc4[C@@H]3c3nc4c(F)cccc4s3)cnn2c1` [Example 1620, (R)-(6-((dimethylamino)methyl)pyrazolo[1,5-a]pyridin-3-yl)(4-(4-fluorobenzo[d]thiazol-2-yl)-6,7-dihydro-1H-imidazo[4,5-c]pyridin-5(4H)-yl)methanone] has an AC50 greater than 5000 nM. `O=C(c1cnn2ccc(Br)cc12)N1CCc2[nH]cnc2[C@H]1c1nc2c(F)cccc2s1` [Example 1171] gave an AC50 of less than 500 nM. Work on `CC(C)(O)c1nnc(C(=O)N2CCc3[nH]cnc3[C@H]2c2nc3ccccc3s2)o1` [Example 1508] yielded an AC50 of 1000 to 5000 nM.

Same assay, conditions: A375 cells expressing human R408W PAH; 24 hrs with compound; 13C-Tyrosine by LC-MS; average where tested multiple times; read-out: AC50
`O=C(c1nnc(-c2ccccn2)o1)N1CCCc2[nH]cnc2C1c1nc2ccccc2s1` (stereo not drawn) was tested, and the AC50 was greater than 5000 nM. For `O=C(c1cnc[nH]1)N1CCc2[nH]cnc2C1c1nc2ccccc2[nH]1` (stereo not drawn), the AC50 was greater than 5000 nM. With `O=C(c1oc(-c2ccccc2)nc1-c1ccccc1)N1CCc2[nH]cnc2C1c1nc2ccccc2s1` (stereo not drawn) the AC50 was 1000 to 5000 nM. With `O=C(c1n[nH]c2ccccc12)N1CCc2[nH]cnc2[C@H]1c1nc2ccccc2[nH]1` [(S)-(4-(1H-benzo[d]imidazol-2-yl)-1,4,6,7-tetrahydro-5H-imidazo[4,5-c]pyridin-5-yl)(1H-indazol-3-yl)methanone] the AC50 was greater than 5000 nM. In the case of `O=C(c1cnn2c(Br)cccc12)N1CCc2[nH]cnc2[C@@H]1c1nc2ccccc2[nH]1` (single isomer, unassigned), the AC50 is reported as greater than 5000 nM. In the case of `Cn1ncc(C(=O)N2CCc3[nH]cnc3C2c2nc3ccccc3s2)n1` (stereo not drawn), the AC50 is reported as 1000 to 5000 nM. Compound `Cc1nc(C(C)(C)S(C)(=O)=O)oc1C(=O)N1CCc2[nH]cnc2C1c1nc2c(F)cccc2s1` (stereo not drawn) has an AC50 of 1000 to 5000 nM. With `O=C(c1nnc(CCC(F)(F)F)o1)N1CCc2[nH]cnc2C1c1nc2ccccc2s1` (stereo not drawn) the AC50 was 1000 to 5000 nM. `CC(C)(O)c1cc(C(=O)N2CCc3[nH]cnc3C2c2nc3c(F)cccc3s2)sn1` (stereo not drawn) gave an AC50 greater than 5000 nM. With `CC(C)(O)c1ncc(C(=O)N2CCc3[nH]cnc3[C@H]2c2nc3ccccc3[nH]2)o1` [(S)-(4-(1H-benzo[d]imidazol-2-yl)-6,7-dihydro-1H-imidazo[4,5-c]pyridin-5(4H)-yl)(2-(2-hydroxypropan-2-yl)oxazol-5-yl)methanone] the AC50 was greater than 5000 nM. With `Cc1nnc(CCC(=O)N2CCc3[nH]cnc3C2c2nc3ccc(Br)cc3[nH]2)s1` (stereo not drawn) the AC50 was 1000 to 5000 nM. In the case of `O=C(c1ccc2ncsc2c1)N1CCc2[nH]cnc2C1c1nc2ccccc2[nH]1` (stereo not drawn), the AC50 is reported as greater than 5000 nM. In the case of `O=C(c1oc(C2CCN2)nc1C(F)F)N1CCc2[nH]cnc2C1c1nc2c(F)cccc2s1` (stereo not drawn), the AC50 is reported as 1000 to 5000 nM.

Source: US20250171438A1 (Agios Pharmaceuticals, Inc., priority 2022, published 2025)
